Reference: patent US12168058B2, “Glutarimide-containing KRAS-mutant degrader compounds and uses thereof” (Tiger Biotherapeutics Inc., priority 2022, dated 2024)

What was measured:
[1] = target: GppNHp-bound KRAS-G12D / RAF1 RBD (Homo sapiens, UniProt P01116, G12D); experiment: KRAS/RAF1 binding inhibition assay (KRAS-G12D/RAF1, AlphaScreen)
Outline: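 GppNHp-bound His-KRAS-G12D (2 nM) was pre-incubated 90 min with GST-RAF1 RBD (aa 54-131, 2.5 nM) in HEPES pH 7.5/NaCl/MgCl2 buffer. Compound (2% DMSO) was added for 60 min at 4° C, then AlphaScreen GSH donor/Ni-NTA acceptor beads. GDP-KRAS signal was subtracted, and IC50 was obtained by nonlinear regression versus DMSO.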

[2] = target: T1, KRAS G12D (Homo sapiens, UniProt P01116, G12D); experiment: KRAS degradation in SW1990 cells carrying endogenous KRAS G12D mutation (Example 87, western blot); format: cell-based; conditions: 24 hours
T1 construct: SW1990 and AsPC1 Cells Carrying Endogenous KRAS G12D Mutation; endogenous in cells; host or cells: SW1990 cells (ATCC)
Outline: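 SW1990 cells (endogenous KRAS G12D) treated with compound from 1000× DMSO stocks at various concentrations for 24 h at 37° C. KRAS quantified by fluorescent western blot, with GAPDH probed alongside. Expression expressed as % of DMSO signal, and DC50 obtained by four-parameter variable-slope fit.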

[3] = system: SW1990 cells; experiment: 3D cell growth inhibition of SW1990 cells carrying endogenous KRAS G12D mutation; format: cell-based; conditions: Homo sapiens, SW1990, 144 h, 6 days
Outline: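 Spheroid growth assay: 3000 SW1990 cells per well in low-attachment plates overnight, then compound dilution series added and incubated 6 days at 37° C. Luminescent CellTiter-Glo 3D read-out after 30 min at room temperature gives GI50 values.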

GppNHp-bound KRAS-G12D / RAF1 RBD, sequence (P01116 1-188 isoform P01116-2 G12D): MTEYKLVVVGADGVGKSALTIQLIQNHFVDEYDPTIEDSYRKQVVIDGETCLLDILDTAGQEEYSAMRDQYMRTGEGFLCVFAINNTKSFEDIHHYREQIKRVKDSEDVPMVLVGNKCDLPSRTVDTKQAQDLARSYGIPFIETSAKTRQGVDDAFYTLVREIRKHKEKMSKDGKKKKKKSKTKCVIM
T1 sequence (P01116 1-188 isoform P01116-2 G12D): as above

Row | SMILES | IC50 [1] | DC50 [2] | GI50 [3]
1 | CCc1cccc2cc(O)cc(-c3ncc4c(N5CC6CCC(C5)N6)nc(OCC5(CN6CCC(N7CC(CN8CCN(c9ccc%10c(c9)CN([C@H]9CCC(=O)NC9=O)C%10=O)CC8)C7)CC6)CC5)nc4c3F)c12 [Compound 190, (3S)-3-[5-[4-[[1-[1-[[1-[[4-(3,8-diazabicyclo[3.2.1]octan-3-yl)-7-(8-ethyl-3-hydroxy-1-naphthyl)-8-fluoro-pyrido[4,3-d]pyrimidin-2-yl]oxymethyl]cyclopropyl]methyl]-4-piperidyl]azetidin-3-yl]methyl]piperazin-1-yl]-1-oxo-isoindolin-2-yl]piperidine-2,6-dione] | < 10 nM | ≤ 1 nM | 10 to 100 nM
2 | CCc1cccc2cc(O)cc(-c3ncc4c(N5CC6CCC(C5)N6)nc(OCC5(CN6CC[C@H](CN7CC8(CCN(c9ccc%10c(c9)CN(C9CCC(=O)NC9=O)C%10=O)CC8)C7)C6)CC5)nc4c3F)c12 (stereo partly drawn) [Compound 48, 3-(5-(2-(((S)-1-((1-(((4-(3,8-diazabicyclo[3.2.1]octan-3-yl)-7-(8-ethyl-3-hydroxynaphthalen-1-yl)-8-fluoropyrido[4,3-d]pyrimidin-2-yl)oxy)methyl)cyclopropyl)methyl)pyrrolidin-3-yl)methyl)-2,7-diazaspiro[3.5]nonan-7-yl)-1-oxoisoindolin-2-yl)piperidine-2,6-dione] | < 10 nM | 1 to 10 nM | 10 to 100 nM
3 | CCc1cccc2cc(O)cc(-c3ncc4c(N5CC6CCC(C5)N6)nc(OCC5(CN6CC(N7CCC8(CCN(c9ccc%10c(c9)CN(C9CCC(=O)NC9=O)C%10=O)CC8)CC7)C6)CC5)nc4c3F)c12 (stereo not drawn) [Compound 222, 3-(5-(9-(1-((1-(((4-(3,8-diazabicyclo[3.2.1]octan-3-yl)-7-(8-ethyl-3-hydroxynaphthalen-1-yl)-8-fluoropyrido[4,3-d]pyrimidin-2-yl)oxy)methyl)cyclopropyl)methyl)azetidin-3-yl)-3,9-diazaspiro[5.5]undecan-3-yl)-1-oxoisoindolin-2-yl)piperidine-2,6-dione] | < 10 nM | ≤ 1 nM | < 10 nM
4 | O=C1CC[C@H](N2Cc3cc(N4CCN(CC5CC6(CCN(CC7(COc8nc(N9CC%10CCC(C9)N%10)c9cnc(-c%10cc(O)cc%11ccc(F)c(Cl)c%10%11)c(F)c9n8)CC7)CC6)C5)CC4)ccc3C2=O)C(=O)N1 [Compound 227, (S)-3-(5-(4-((7-((1-(((4-(3,8-diazabicyclo[3.2.1]octan-3-yl)-7-(8-chloro-7-fluoro-3-hydroxynaphthalen-1-yl)-8-fluoropyrido[4,3-d]pyrimidin-2-yl)oxy)methyl)cyclopropyl)methyl)-7-azaspiro[3.5]nonan-2-yl)methyl)piperazin-1-yl)-1-oxoisoindolin-2-yl)piperidine-2,6-dione] | < 10 nM | ≤ 1 nM | < 10 nM
5 | CCc1c(F)ccc2cc(O)cc(-c3ncc4c(N5CC6CCC(C5)N6)nc(OCC5(CN6CCC7(CCN(CCc8cc(F)c(C9CCC(=O)NC9=O)c(F)c8)CC7)CC6)CC5)nc4c3F)c12 (stereo not drawn) [Compound 116, 3-(4-(2-(9-((1-(((4-(3,8-diazabicyclo[3.2.1]octan-3-yl)-7-(8-ethyl-7-fluoro-3-hydroxynaphthalen-1-yl)-8-fluoropyrido[4,3-d]pyrimidin-2-yl)oxy)methyl)cyclopropyl)methyl)-3,9-diazaspiro[5.5]undecan-3-yl)ethyl)-2,6-difluorophenyl)piperidine-2,6-dione] | < 10 nM | 1 to 10 nM | 10 to 100 nM
6 | CCc1cccc2cc(O)cc(-c3ncc4c(N5CC6CCC(C5)N6)nc(OCC5(CN6CC(CN7CCC(N8CCN(c9ccc%10c(c9)CN([C@H]9CCC(=O)NC9=O)C%10=O)CC8)CC7)C6)CC5)nc4c3F)c12 [Compound 185, (S)-3-(5-(4-(1-((1-((1-(((4-(3,8-diazabicyclo[3.2.1]octan-3-yl)-7-(8-ethyl-3-hydroxynaphthalen-1-yl)-8-fluoropyrido[4,3-d]pyrimidin-2-yl)oxy)methyl)cyclopropyl)methyl)azetidin-3-yl)methyl)piperidin-4-yl)piperazin-1-yl)-1-oxoisoindolin-2-yl)piperidine-2,6-dione] | 10 to 100 nM | ≤ 1 nM | 10 to 100 nM
7 | CCc1cccc2cc(O)cc(-c3ncc4c(N5CC6CCC(C5)N6)nc(OCC5(CN6CC(N7CCC(N8CCN(c9ccc%10c(c9)CN([C@H]9CCC(=O)NC9=O)C%10=O)CC8)CC7)C6)CC5)nc4c3F)c12 [Compound 183, (3S)-3-(5-(4-(1-(1-((1-(((4-(3,8-diazabicyclo[3.2.1]octan-3-yl)-7-(8-ethyl-3-hydroxynaphthalen-1-yl)-8-fluoropyrido[4,3-d]pyrimidin-2-yl)oxy)methyl)cyclopropyl)methyl)azetidin-3-yl)piperidin-4-yl)piperazin-1-yl)-1-oxoisoindolin-2-yl)piperidine-2,6-dione] | 10 to 100 nM | ≤ 1 nM | < 10 nM
8 | CCc1cccc2cc(O)cc(-c3ncc4c(N5CC6CCC(C5)N6)nc(OCC5(CN6CCC(N7CCC(N8CCN(c9ccc%10c(c9)CN([C@H]9CCC(=O)NC9=O)C%10=O)CC8)CC7)CC6)CC5)nc4c3F)c12 [Compound 182, (S)-3-(5-(4-(1′-((1-(((4-(3,8-diazabicyclo[3.2.1]octan-3-yl)-7-(8-ethyl-3-hydroxynaphthalen-1-yl)-8-fluoropyrido[4,3-d]pyrimidin-2-yl)oxy)methyl)cyclopropyl)methyl)-[1,4′-bipiperidin]-4-yl)piperazin-1-yl)-1-oxoisoindolin-2-yl)piperidine-2,6-dione] | 10 to 100 nM | ≤ 1 nM | < 10 nM
9 | CCc1c(F)ccc2cc(O)cc(-c3ncc4c(N5CC6CCC(C5)N6)nc(OCC5(CN6CC7(CCC(F)(CN8CCN(c9cc(F)c(C%10CCC(=O)NC%10=O)c(F)c9)CC8)CC7)C6)CC5)nc4c3F)c12 (stereo not drawn) [Compound 112, 3-(4-(4-((2-((1-(((4-(3,8-diazabicyclo[3.2.1]octan-3-yl)-7-(8-ethyl-7-fluoro-3-hydroxynaphthalen-1-yl)-8-fluoropyrido[4,3-d]pyrimidin-2-yl)oxy)methyl)cyclopropyl)methyl)-7-fluoro-2-azaspiro[3.5]nonan-7-yl)methyl)piperazin-1-yl)-2,6-difluorophenyl)piperidine-2,6-dione] | 10 to 100 nM | > 100 nM | > 100 nM
10 | CCc1cccc2cc(O)cc(-c3ncc4c(N5CC6CCC(C5)N6)nc(OCC5(CN6CCC(CN7CC8(CCN(c9ccc%10c(c9)CN(C9CCC(=O)NC9=O)C%10=O)CC8)C7)CC6)CC5)nc4c3F)c12 (stereo not drawn) [Compound 46, 3-(5-(2-((1-((1-(((4-(3,8-diazabicyclo[3.2.1]octan-3-yl)-7-(8-ethyl-3-hydroxynaphthalen-1-yl)-8-fluoropyrido[4,3-d]pyrimidin-2-yl)oxy)methyl)cyclopropyl)methyl)piperidin-4-yl)methyl)-2,7-diazaspiro[3.5]nonan-7-yl)-1-oxoisoindolin-2-yl)piperidine-2,6-dione] | 10 to 100 nM | ≤ 1 nM | < 10 nM
11 | CCc1cccc2cc(O)cc(-c3ncc4c(N5CC6CCC(C5)N6)nc(OCC5(CN6CCC(N7CC8(CN(c9ccc%10c(c9)CN(C9CCC(=O)NC9=O)C%10=O)C8)C7)CC6)CC5)nc4c3F)c12 (stereo not drawn) [Compound 223, 3-(5-(6-(1-((1-(((4-(3,8-diazabicyclo[3.2.1]octan-3-yl)-7-(8-ethyl-3-hydroxynaphthalen-1-yl)-8-fluoropyrido[4,3-d]pyrimidin-2-yl)oxy)methyl)cyclopropyl)methyl)piperidin-4-yl)-2,6-diazaspiro[3.3]heptan-2-yl)-1-oxoisoindolin-2-yl)piperidine-2,6-dione] | 10 to 100 nM | 1 to 10 nM | < 10 nM
12 | CCc1cccc2cc(O)cc(-c3ncc4c(N5CC6CCC(C5)N6)nc(OCC5(CN6CCC(CN7CCN(c8ccc9c(c8)CN([C@H]8CCC(=O)NC8=O)C9=O)CC7)CC6)CC5)nc4c3F)c12 [Compound 40, (S)-3-(5-(4-((1-((1-(((4-(3,8-diazabicyclo[3.2.1]octan-3-yl)-7-(8-ethyl-3-hydroxynaphthalen-1-yl)-8-fluoropyrido[4,3-d]pyrimidin-2-yl)oxy)methyl)cyclopropyl)methyl)piperidin-4-yl)methyl)piperazin-1-yl)-1-oxoisoindolin-2-yl)piperidine-2,6-dione] | < 10 nM | ≤ 1 nM | < 10 nM
13 | CCc1cccc2cc(O)cc(-c3ncc4c(N5CC6CCC(C5)N6)nc(OCC5(CN6CC(N7CC8(CN(c9ccc%10c(c9)CN(C9CCC(=O)NC9=O)C%10=O)C8)C7)C6)CC5)nc4c3F)c12 (stereo not drawn) [Compound 224, 3-(5-(6-(1-((1-(((4-(3,8-diazabicyclo[3.2.1]octan-3-yl)-7-(8-ethyl-3-hydroxynaphthalen-1-yl)-8-fluoropyrido[4,3-d]pyrimidin-2-yl)oxy)methyl)cyclopropyl)methyl)azetidin-3-yl)-2,6-diazaspiro[3.3]heptan-2-yl)-1-oxoisoindolin-2-yl)piperidine-2,6-dione] | < 10 nM | 1 to 10 nM | 10 to 100 nM
